Legend:
COS-7 cells = assay: Cytotoxicity toward COS-7 cells (resazurin and CFDA-AM assays); conditions: antiandrogenic reporter assay conditions (with testosterone); highest concentration used; 24 h
Text: The cytotoxicity of the test compounds toward COS-7 cells was monitored by measuring the metabolic activity and membrane integrity through the conversion of resazurin and 5-carboxyfluorescein diacetate acetoxymethyl ester (CFDA-AM), respectively, as described previously by Pérez-Albaladejo et al.[54] […]
used as a negative control.
Figure S2. Assessing metabolic activity (resazurin) and cell membrane integrity (CFDA-AM) in COS-7 cells after BP exposures. COS-7 cells were exposed to three concentrations of each BP, as well as three concentrations […]
exposed at 37 °C and 5 % CO2 for 24 hours. Cytotoxicity is indicated by a reduction in the fluorescent signal (denoted as % Cell survival) relative to the solvent control (DMSO, dotted line) adjusted to 100 %. A reduction in cell viability exceeding 20 % is generally regarded as cytotoxic (indicated with a red dotted line) (ISO, I. 2009.
10993–5: 2009 Biological evaluation of medical devices—part 5: tests for in vitro cytotoxicity. International Organization for Standardization, Geneva.).
(1 picture or pasted object on this page, not shown here)

[1] = target: T1, Atlantic cod estrogen receptor alpha (gmEra) LBD (Gadus morhua, UniProt U5ILH7); assay: Luciferase reporter gene assay, gmEra agonism (estrogenic activity) in transfected COS-7 cells; conditions: luciferase reporter gene assay
T1 sequence (U5ILH7 170-455): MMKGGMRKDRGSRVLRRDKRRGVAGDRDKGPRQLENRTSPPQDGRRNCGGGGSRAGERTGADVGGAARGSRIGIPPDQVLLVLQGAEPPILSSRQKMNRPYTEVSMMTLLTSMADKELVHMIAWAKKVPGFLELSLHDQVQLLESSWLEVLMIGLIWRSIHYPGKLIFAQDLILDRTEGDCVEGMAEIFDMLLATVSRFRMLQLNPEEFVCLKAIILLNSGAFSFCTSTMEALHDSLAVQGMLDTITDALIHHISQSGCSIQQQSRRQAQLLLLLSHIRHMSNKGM
Experimental: (§1) Ligand activation of gmEra and gmAra was studied with a luciferase reporter gene assay in COS-7 cells transiently transfected with the pCMX-GAL4(DBD)-gmEra(LBD) or pCMX-GAL4(DBD)-gmAra(LBD) plasmid by using the TransIT-LT1 reagent (TransIT-LT1 Transfection Reagent, Mirus). Cells were seeded into 96-well plates (5000 cells/well) and incubated for 24 h before cotransfection with the plasmid mixture (100 ng/well). The plasmid mixture contained GAL4-UAS luciferase reporter plasmid (tk-(MH100)x4 luc), the pCMX-GAL4(DBD)-gmEra(LBD) or pCMX-GAL4(DBD)-gmAra(LBD) receptor plasmids (2:1 reporter:receptor plasmid mass ratio), and a plasmid constitutively producing the β-galactosidase enzyme used for normalization of transfection efficiency (pCMV- β-Gal). […] The maximum DMSO/methanol concentrations in the exposure wells were 0.5% (v/v) in DMEM medium without phenol red (Sigma-Aldrich). After exposure, cells were lysed, and luciferase and beta-galactosidase activities were measured as luminescence and absorbance (420 nm) after the addition of luciferin and ONPG substrates, respectively, using an Enspire Multimode plate reader (PerkinElmer, Waltham, Massachusetts, USA).
Luciferase reporter gene assays were established with COS-7 cells transiently producing the LBD of gmEra (Figure S1) for evaluating the estrogenic potential of 12 bisphenols.
COS-7 cells transiently transfected with gmEra-LBD were exposed to EE2 (open circles), BPA (black circles), and 11 different BPA analogs (red squares and as indicated) at increasing concentrations. Responses are presented as mean fold activation in luciferase activity in comparison to solvent-exposed cells ± SEM from three independent experiments with three technical replicates (n = 9). The dose–response curves were created using nonlinear regression and the four parameter logistic fit in Graphpad Prism v.9. For comparison, the dose–response curve of BPA (black line) is indicated together with each individual BP tested (red line). *p < 0.05 versus solvent control by one-way ANOVA and Dunnett’s multiple comparison post hoc test.

[2] = target: T1, Atlantic cod estrogen receptor alpha (gmEra) LBD; assay: Luciferase reporter gene assay, gmEra antagonism (antiestrogenic activity), coexposure with 3 nM EE2; assay type: cell-based; conditions: coexposure with EE2 (3 nM, EC20)
Experimental: as §1
To investigate potential antiestrogenic effects, COS-7 cells transiently expressing gmEra LBD were exposed to the 12 bisphenols in binary mixtures with a fixed concentration of EE2 (3 nM, corresponding to EC20) (Figure 2 and Table 1).
(§2) The dose–response curves were created using nonlinear regression and the four-parameter logistic fit in Graphpad Prism v.9. *p < 0.05 versus solvent control by ANOVA and Dunnett’s multiple comparison post hoc test.

[3] = target: T2, Atlantic cod androgen receptor alpha (gmAra) LBD (Gadus morhua, UniProt D5FIC7); assay: Luciferase reporter gene assay, gmAra antagonism (antiandrogenic activity), coexposure with 5 nM testosterone; assay type: cell-based; conditions: BPs 0.003–50 μM with 5 nM testosterone
T2 sequence (D5FIC7 409-718): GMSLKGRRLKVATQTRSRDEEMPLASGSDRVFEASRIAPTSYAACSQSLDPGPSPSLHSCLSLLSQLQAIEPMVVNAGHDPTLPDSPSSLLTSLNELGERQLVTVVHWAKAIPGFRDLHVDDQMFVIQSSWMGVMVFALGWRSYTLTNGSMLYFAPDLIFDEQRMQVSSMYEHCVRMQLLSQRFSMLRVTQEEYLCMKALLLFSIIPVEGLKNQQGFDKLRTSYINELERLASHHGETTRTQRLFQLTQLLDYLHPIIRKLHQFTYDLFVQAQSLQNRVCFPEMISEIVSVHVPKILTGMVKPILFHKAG
Experimental: as §1, §2

SMILES | cytotoxic concentration in COS-7 cells (COS-7 cells) [µM] | gmEra activation, result in words [1] | antiestrogenic effect on gmEra, result in words [2] | effect on testosterone-mediated gmAra activity, result in words [3]
CC(C)(c1ccc(OCC2CO2)cc1)c1ccc(OCC2CO2)cc1 (centres unmarked) [BADGE] | 50 | did not activate gmEra | no antiestrogenic effects | –
Oc1ccc(C2(c3ccc(O)cc3)c3ccccc3-c3ccccc32)cc1 [BPFL] | – | did not activate gmEra | – | significant increases in gmAr activity

Reference: paper PMC11325555, “Interaction of Bisphenol A and Its Analogs with Estrogen and Androgen Receptor from Atlantic Cod (Gadus morhua)” (Environmental Science & Technology, 2024)
